In the supplement of paper PMC11208160:

test: recombinant UMI read abundance after kanamycin selection (control-corrected) (log10(CPM+1)); higher = more efficient recombination; extreme values may be limits of the assay; sequences stand for … in AGTGCAGAGAAAATCGGCCAGTTTTCTCTGCCTGCAGTCCGCATGCCGTGGGACCCCTTGGGTTCTAACCTGTTGCCTAGATTTATGCAGCGGACTGCCTTTCTCCCAAAGTGATAAACCGG…AGGTTGGTTTCACT; site = the 11-nt donor
Outline: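 Pooled Escherichia coli screen of donor and donor-binding-loop pairs for the IS621 bridge recombinase. Each pair sits with a 12-nt UMI on a plasmid carrying a promoterless kanamycin gene. The library was co-electroporated with a target plasmid encoding a fixed target and T7-inducible recombinase, then plated with IPTG (0.07 mM) plus kanamycin, or unselected, each in two replicates. Recombinant UMIs were PCR-amplified across the donor–target junction and sequenced. Counts became CPM, averaged over replicates, scaled by control-derived factors and reported as log10(CPM+1).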
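Also: IS621 bridge recombinase in Escherichia coli cells against a fixed T5 target plasmid.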

“AAATCGACATGGACCGGTTTTCCCGGTAATCCGTATTTGGT (site AAATCGACTAC)” and “CAGTTGACATGGACCGGTTTTCCCGGTAATCCGTATTTGGG (site CAGTAGACTCC)” are within 0.2 log units of each other in “recombinant UMI read abundance (log10)” value: 0.133 for the first, 0 for the second.

“CACGGTCCATGGACCGGTTTTCCCGGTAATCCGTATTTGCA (site CTCGGTCCTTG)” and “CCCATATCATGGACCGGTTTTCCCGGTAATCCGTATTTGTC (site CCCCTATCTGA)” are the same in “recombinant UMI read abundance (log10)” value: 0 for the first, 0 for the second.

Compared with “TAATGAGCATGGACCGGTTTTCCCGGTAATCCGTATTTGGC (site TAATGAGCTAC)”, “TATTAGGCATGGACCGGTTTTCCCGGTAATCCGTATTTGTG (site TATTTGGCTCA)” is lower in “recombinant UMI read abundance (log10)” value: 0.253 for the first, 0.0156 for the second.

“GTCGGTACATGGACCGGTTTTCCCGGTAATCCGTATTTGAC (site GTTGGTACTGT)” and “CCCTAGCCATGGACCGGTTTTCCCGGTAATCCGTATTTGCC (site CCCTAGCCTGC)” are the same in “recombinant UMI read abundance (log10)” value: 0 for the first, 0 for the second.

Compared with “CAACTCCCATGGACCGGTTTTCCCGGTAATCCGTATTTGCT (site CAAATCCCTAG)”, “TGCCGAACATGGACCGGTTTTCCCGGTAATCCGTATTTGAT (site TGCCGAACTAT)” is higher in “recombinant UMI read abundance (log10)” value: 0.818 for the first, 1.59 for the second.

First: GATTGGACATGGACCGGTTTTCCCGGTAATCCGTATTTGAA (site GATTGGACTTT)
Second: ACCTAGGCATGGACCGGTTTTCCCGGTAATCCGTATTTGGG (site ACCTAGACTCC)
The “recombinant UMI read abundance (log10)” value of the first is higher: 0.419 for the first, 0.00318 for the second.

First: CAATTCCCATGGACCGGTTTTCCCGGTAATCCGTATTTGCC (site CAATTCCCTAG)
Second: TCAGTCCCATGGACCGGTTTTCCCGGTAATCCGTATTTGGT (site TCAGTCCCTAC)
The “recombinant UMI read abundance (log10)” value of the first is higher: 0.635 for the first, 0 for the second.

“ACATCTACATGGACCGGTTTTCCCGGTAATCCGTATTTGTT (site ACATCTACTTA)” and “CAACGCTCATGGACCGGTTTTCCCGGTAATCCGTATTTGAA (site CAAAGCTCTTT)” are within 0.2 log units of each other in “recombinant UMI read abundance (log10)” value: 0.0357 for the first, 0.00291 for the second.

First: CGACCGACATGGACCGGTTTTCCCGGTAATCCGTATTTGTT (site CGATCGACTAA)
Second: CAATGCTCATGGACCGGTTTTCCCGGTAATCCGTATTTGGA (site CAATGCTCTTG)
The “recombinant UMI read abundance (log10)” value of the first is lower: 0.00843 for the first, 1.83 for the second.

“CCCTAGCCATGGACCGGTTTTCCCGGTAATCCGTATTTGCC (site CCCTAGCCTGT)” and “AGCCTAACATGGACCGGTTTTCCCGGTAATCCGTATTTGTT (site AGCCTAGCTAA)” are within 0.2 log units of each other in “recombinant UMI read abundance (log10)” value: 0 for the first, 0.0126 for the second.

“CGTTCCACATGGACCGGTTTTCCCGGTAATCCGTATTTGTG (site CGTTCCACTCA)” and “AATATGTCATGGACCGGTTTTCCCGGTAATCCGTATTTGAC (site AATTTGTCTGT)” are within 0.2 log units of each other in “recombinant UMI read abundance (log10)” value: 0.0103 for the first, 0 for the second.

Going from “GTTCGAACATGGACCGGTTTTCCCGGTAATCCGTATTTGGC (site GTTGGAACTGC)” to “TGTACAACATGGACCGGTTTTCCCGGTAATCCGTATTTGAC (site TGTACAACTGT)”, the “recombinant UMI read abundance (log10)” value rises from 0 to 0.315.

“CGAGCACCATGGACCGGTTTTCCCGGTAATCCGTATTTGGG (site CGAGCACCTCC)” and “CCAGGCGCATGGACCGGTTTTCCCGGTAATCCGTATTTGAT (site CCAGGGGCTAT)” are within 0.2 log units of each other in “recombinant UMI read abundance (log10)” value: 0.0175 for the first, 0.00758 for the second.

Going from “GATGATTCATGGACCGGTTTTCCCGGTAATCCGTATTTGTT (site GATGATTCTAA)” to “CGGCGGCCATGGACCGGTTTTCCCGGTAATCCGTATTTGTC (site CGGCGGCCTGA)”, the “recombinant UMI read abundance (log10)” value falls from 1.79 to 0.965.

Compared with “GTGAGGGCATGGACCGGTTTTCCCGGTAATCCGTATTTGAA (site GTGAGGGCTTT)”, “ACAGTGTCATGGACCGGTTTTCCCGGTAATCCGTATTTGCA (site ACAGTATCTTG)” is higher in “recombinant UMI read abundance (log10)” value: 1.83 for the first, 3.35 for the second.

First: ACATGTACATGGACCGGTTTTCCCGGTAATCCGTATTTGTG (site ACATTTACTCA)
Second: CTACTAACATGGACCGGTTTTCCCGGTAATCCGTATTTGAA (site CTACTAACTTC)
The “recombinant UMI read abundance (log10)” value of the first is lower: 0 for the first, 0.291 for the second.

First: TGACCGACATGGACCGGTTTTCCCGGTAATCCGTATTTGAT (site TGACCGACTAT)
Second: GGTTCCGCATGGACCGGTTTTCCCGGTAATCCGTATTTGCG (site GGTTCCGCTCG)
The “recombinant UMI read abundance (log10)” value of the first is higher: 0.561 for the first, 0 for the second.

First: AGCCCAGCATGGACCGGTTTTCCCGGTAATCCGTATTTGTT (site AGCCTAGCTAA)
Second: CCAGGCGCATGGACCGGTTTTCCCGGTAATCCGTATTTGAT (site CCAGGCGCTAT)
The “recombinant UMI read abundance (log10)” value of the first is lower: 0.0205 for the first, 1.24 for the second.

First: GACTATCCATGGACCGGTTTTCCCGGTAATCCGTATTTGCT (site GACTATCCTAG)
Second: CTAGTTTCATGGACCGGTTTTCCCGGTAATCCGTATTTGAA (site CTAGTTTCTTT)
The “recombinant UMI read abundance (log10)” value of the first is lower: 1.29 for the first, 1.85 for the second.

“AGCCTAGCATGGACCGGTTTTCCCGGTAATCCGTATTTGTT (site CGCCTAGCTAA)” and “AGCCTAGCATGGACCGGTTTTCCCGGTAATCCGTATTTGTT (site AGCCTGGCTAA)” are within 0.2 log units of each other in “recombinant UMI read abundance (log10)” value: 0.00222 for the first, 0.0296 for the second.

Compared with “TATCCTTCATGGACCGGTTTTCCCGGTAATCCGTATTTGGT (site TATCCTTCTAC)”, “TGCTAGGCATGGACCGGTTTTCCCGGTAATCCGTATTTGCT (site TGCTAGGCTAC)” is lower in “recombinant UMI read abundance (log10)” value: 0.31 for the first, 0.0125 for the second.

First: CGTCGTACATGGACCGGTTTTCCCGGTAATCCGTATTTGCT (site CGACGTACTAG)
Second: CGGAATGCATGGACCGGTTTTCCCGGTAATCCGTATTTGTT (site CGGAATTCTAA)
The “recombinant UMI read abundance (log10)” value of the first is higher: 0.689 for the first, 0 for the second.

Going from “AAGACTACATGGACCGGTTTTCCCGGTAATCCGTATTTGAC (site ACGACTACTGT)” to “AATTGGACATGGACCGGTTTTCCCGGTAATCCGTATTTGAC (site CATTGGACTGT)”, the “recombinant UMI read abundance (log10)” value rises from 0.383 to 0.955.

Compared with “GAGCTAGCATGGACCGGTTTTCCCGGTAATCCGTATTTGAA (site TAGCTAGCTTT)”, “TCAGTACCATGGACCGGTTTTCCCGGTAATCCGTATTTGTG (site TCAGTACCTCA)” is lower in “recombinant UMI read abundance (log10)” value: 1.63 for the first, 0.023 for the second.

First: TCGTACTCATGGACCGGTTTTCCCGGTAATCCGTATTTGCA (site TCATACTCTTG)
Second: GGCACTCCATGGACCGGTTTTCCCGGTAATCCGTATTTGAA (site GGCATTCCTTT)
The “recombinant UMI read abundance (log10)” value of the first is higher: 2.44 for the first, 0.00807 for the second.

Going from “GATTACCCATGGACCGGTTTTCCCGGTAATCCGTATTTGCT (site GATTAACCTAG)” to “ATCTGTACATGGACCGGTTTTCCCGGTAATCCGTATTTGAC (site ATCTGTACTGT)”, the “recombinant UMI read abundance (log10)” value rises from 0 to 1.31.

Compared with “ACCTAGACATGGACCGGTTTTCCCGGTAATCCGTATTTGGG (site ACCTTGACTCC)”, “ATAAGGCCATGGACCGGTTTTCCCGGTAATCCGTATTTGGC (site ATAAGGCCTGC)” is higher in “recombinant UMI read abundance (log10)” value: 0.0253 for the first, 2.31 for the second.

First: CTACTAACATGGACCGGTTTTCCCGGTAATCCGTATTTGAA (site CTACTAACTTT)
Second: AACTAAGCATGGACCGGTTTTCCCGGTAATCCGTATTTGGT (site AACTAAGCTAC)
The “recombinant UMI read abundance (log10)” value of the first is higher: 2.27 for the first, 1.25 for the second.

For “ATGCTTGCATGGACCGGTTTTCCCGGTAATCCGTATTTGCT (site ATGCTTGCTAG)”, the “recombinant UMI read abundance (log10)” value was 0.679.
